Each structure is given as a SMILES string. Structures can show the parent of a compound that is named as a salt.

This note sets out measurements from patent US20100022491A1, “4-HYDROXY-2-OXO-2,3-DIHYDRO-1,3-BENZOTHIAZOL-7YL COMPOUNDS FOR MODULATION OF B2-ADRENORECEPTOR ACTIVITY” (ASTRAZENECA AB, priority 2006, published 2010).

The target in assay [1] is T1, recombinant human α1D receptor (Homo sapiens, UniProt P25100).
T1 construct: expressed in transfected cells; host or cells: HEK293
T1 sequence (P25100 1-572): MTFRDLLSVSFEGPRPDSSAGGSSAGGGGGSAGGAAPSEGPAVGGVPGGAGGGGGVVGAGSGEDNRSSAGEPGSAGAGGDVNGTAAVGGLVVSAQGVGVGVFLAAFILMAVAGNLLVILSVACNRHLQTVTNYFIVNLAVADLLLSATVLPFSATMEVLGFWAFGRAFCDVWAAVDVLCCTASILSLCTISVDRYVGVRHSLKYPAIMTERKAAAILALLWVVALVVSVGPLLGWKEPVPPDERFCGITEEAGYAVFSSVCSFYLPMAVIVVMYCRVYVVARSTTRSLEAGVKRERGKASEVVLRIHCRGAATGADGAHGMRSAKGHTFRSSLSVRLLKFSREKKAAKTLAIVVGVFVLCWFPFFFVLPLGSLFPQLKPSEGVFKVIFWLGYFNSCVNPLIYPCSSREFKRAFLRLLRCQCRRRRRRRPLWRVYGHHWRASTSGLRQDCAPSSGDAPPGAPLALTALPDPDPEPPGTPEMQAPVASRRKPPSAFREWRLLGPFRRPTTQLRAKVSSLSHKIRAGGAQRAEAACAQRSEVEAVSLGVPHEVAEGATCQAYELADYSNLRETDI
The assay is described as follows: Adrenergic α1D selectivity binding assay ([3H]-prazosin). To be noted: inhibition of [3H]-prazosin (0.3 nM) binding, HEK293 membranes; read-out: α1 bind pIC50 (converted). On the procedure:
Membranes were prepared from human embryonic kidney 293 (HEK293) cells expressing recombinant human α1D receptor. These were diluted in Assay Buffer (50 mM HEPES, 1 mM EDTA, 0.1% gelatin, pH 7.4) to provide a final concentration of membranes that gave a clear window between maximum and minimum specific binding.
(§1) Assays were performed in U-bottomed 96-well polypropylene plates. 10 μL [^3H]-prazosin (0.3 nM final concentration) and 10 μL of test compound (10× final concentration) were added to each test well. For each assay plate 8 replicates were obtained for [^3H]-prazosin binding in the presence of 10 μL vehicle (10% (v/v) DMSO in Assay Buffer; defining maximum binding) or 10 μL BMY7378 (10 μM final concentration; defining non-specific binding (NSB)). Membranes were then added to achieve a final volume of 100 μL. The plates were incubated for 2 hours at room temperature and then filtered onto PEI coated GF/B filter plates, pre-soaked for 1 hour in Assay Buffer, using a 96-well plate Tomtec cell harvester. Five washes with 250 μL wash buffer (50 mM HEPES, 1 mM EDTA, pH 7.4) were performed at 4° C. to remove unbound radioactivity. The plates were dried then sealed from underneath using Packard plate sealers and MicroScint-O (50 μL) was added to each well. The plates were sealed (TopSeal A) and filter-bound radioactivity was measured with a scintillation counter (TopCount, Packard BioScience) using a 3-minute counting protocol.
Total specific binding (B0) was determined by subtracting the mean NSB from the mean maximum binding. NSB values were also subtracted from values from all other wells. […] Data was fitted to a four parameter logistic equation to determine the compound potency, which was expressed as pIC50 (negative log molar concentration inducing 50% inhibition of [^3H]-prazosin binding).

The target of another assay is T2, Adrenergic β2 (Homo sapiens, UniProt P07550).
T2 construct: Adherent H292 cells were removed from tissue culture flasks; endogenous in cells; host or cells: H292 cells
The assay is described as follows: Adrenergic β2 mediated cAMP production in H292 cells. It is filed as cell-based. The settings on record: for EC50: H292 cells, cAMP by AlphaScreen, 60 minutes at room temperature, rolipram 300 μM, read-out: β2 pEC50 (converted); for β2 Int Act: Intrinsic Activity as a fraction relative to the maximum activity determined for formoterol. As for the experimental part:
Adrenergic β2 mediated cAMP production
H292 cells were grown in 225 cm2 flasks incubator at 37° C., 5% CO2 in RPMI medium containing, 10% (v/v) FBS (foetal bovine serum) and 2 mM L-glutamine.
Adherent H292 cells were removed from tissue culture flasks by treatment with Accutase™ cell detachment solution for 15 minutes. Flasks were incubated for 15 minutes in a humidified incubator at 37° C., 5% CO2. Detached cells were re-suspended in RPMI media (containing 10% (v/v) FBS and 2 mM L-glutamine) at 0.05×10^6 cells per mL. 5000 cells in 100 μL were added to each well of a tissue-culture-treated 96-well plate and the cells incubated overnight in a humidified incubator at 37° C., 5% CO2. The culture media was removed and cells were washed twice with 100 μL assay buffer and replaced with 50 μL assay buffer (HBSS solution containing 10 mM HEPES pH7.4 and 5 mM glucose). Cells were rested at room temperature for 20 minutes after which time 25 μL of rolipram (1.2 mM made up in assay buffer containing 2.4% (v/v) dimethylsulphoxide) was added. Cells were incubated with rolipram for 10 minutes after which time test compounds were added and the cells were incubated for 60 minutes at room temperature. The final rolipram concentration in the assay was 300 μM and final vehicle concentration was 1.6% (v/v) dimethylsulphoxide. The reaction was stopped by removing supernatants, washing once with 100 μL assay buffer and replacing with 50 μL lysis buffer. The cell monolayer was frozen at −80° C. for 30 minutes (or overnight).
The concentration of cAMP (cyclic adenosine monophosphate) in the cell lysate was determined using AlphaScreen™ methodology. The frozen cell plate was thawed for 20 minutes on a plate shaker then 10 μL of the cell lysate was transferred to a 96-well white plate. 40 μL of mixed AlphaScreen™ detection beads pre-incubated with biotinylated cAMP, was added to each well and the plate incubated at room temperature for 10 hours in the dark. The AlphaScreen™ signal was measured using an EnVision spectrophotometer (Perkin-Elmer Inc.) with the recommended manufacturer's settings. cAMP concentrations were determined by reference to a calibration curve determined in the same experiment using standard cAMP concentrations. Concentration response curves for agonists were constructed and data was fitted to a four parameter logistic equation to determine both the pEC50 and Intrinsic Activity. Intrinsic Activity was expressed as a fraction relative to the maximum activity determined for formoterol in each experiment.
(Changes in cAMP serve as a functional read-out for many G protein-coupled receptors.)

Assay [2] has as its target T3, recombinant human Dopamine Subtype D2s receptors (Homo sapiens, UniProt P14416).
T3 construct: purchased Perkin Elmer
Briefly: Dopamine D2 selectivity binding assay ([3H]-spiperone). The settings on record: inhibition of [3H]-spiperone (0.16 nM) binding; read-out: D2 bind pIC50 (converted). As for the experimental part: Membranes containing recombinant human Dopamine Subtype D2s receptors were obtained from Perkin Elmer. These were diluted in Assay Buffer (50 mM HEPES, 1 mM EDTA, 120 mM NaCl, 0.1% gelatin, pH 7.4) to provide a final concentration of membranes that gave a clear window between maximum and minimum specific binding.
Assays were performed in U-bottomed 96-well polypropylene plates. 30 μL [^3H]-spiperone (0.16 nM final concentration) and 30 μL of test compound (10× final concentration) were added to each test well. For each assay plate 8 replicates were obtained for [^3H]-spiperone binding in the presence of 30 μL vehicle (10% (v/v) DMSO in Assay Buffer; defining maximum binding) or 30 μL Haloperidol (10 μM final concentration; defining non-specific binding (NSB)). Membranes were then added to achieve a final volume of 300 μL. The plates were incubated for 2 hours at room temperature and then filtered onto PEI coated GF/B filter plates, pre-soaked for 1 hour in Assay Buffer, using a 96-well plate Tomtec cell harvester. Five washes with 250 μL wash buffer (50 mM HEPES, 1 mM EDTA, 120 mM NaCl, pH 7.4) were performed at 4° C. to remove unbound radioactivity. The plates were dried then sealed from underneath using Packard plate sealers and MicroScint-O (50 μL) was added to each well. The plates were sealed (TopSeal A) and filter-bound radioactivity was measured with a scintillation counter (TopCount, Packard BioScience) using a 3-minute counting protocol.
Total specific binding (B0) was determined by subtracting the mean NSB from the mean maximum binding. NSB values were also subtracted from values from all other wells. […] Data was fitted to a four parameter logistic equation to determine the compound potency, which was expressed as pIC50 (negative log molar concentration inducing 50% inhibition of [^3H]-spiperone binding).

The target in assay [3] is T4, recombinant human adrenergic beta 1 receptors (Homo sapiens, UniProt P08588).
T4 construct: purchased Euroscreen
Briefly: Adrenergic β1 selectivity binding assay ([125I]-Iodocyanopindolol). The settings on record: inhibition of [125I]-Iodocyanopindolol (0.036 nM) binding; read-out: β1 bind p IC50 (converted). As for the experimental part: Membranes containing recombinant human adrenergic beta 1 receptors were obtained from Euroscreen. These were diluted in Assay Buffer (50 mM HEPES, 1 mM EDTA, 120 mM NaCl, 0.1% gelatin, pH 7.4) to provide a final concentration of membranes that gave a clear window between maximum and minimum specific binding.
as §1, with “[^125I]-Iodocyanopindolol (0.036” for “[^3H]-prazosin (0.3”, “[^125I]-Iodocyanopindolol” for “[^3H]-prazosin”, “Propranolol” for “BMY7378”, “EDTA, 120 mM NaCl,” for “EDTA,”
Total specific binding (B0) was determined by subtracting the mean NSB from the mean maximum binding. NSB values were also subtracted from values from all other wells. […] Data was fitted to a four parameter logistic equation to determine the compound potency, which was expressed as pIC50 (negative log molar concentration inducing 50% inhibition of [^125I]-Iodocyanopindolol binding).

T3 sequence (P14416 1-414 isoform P14416-2): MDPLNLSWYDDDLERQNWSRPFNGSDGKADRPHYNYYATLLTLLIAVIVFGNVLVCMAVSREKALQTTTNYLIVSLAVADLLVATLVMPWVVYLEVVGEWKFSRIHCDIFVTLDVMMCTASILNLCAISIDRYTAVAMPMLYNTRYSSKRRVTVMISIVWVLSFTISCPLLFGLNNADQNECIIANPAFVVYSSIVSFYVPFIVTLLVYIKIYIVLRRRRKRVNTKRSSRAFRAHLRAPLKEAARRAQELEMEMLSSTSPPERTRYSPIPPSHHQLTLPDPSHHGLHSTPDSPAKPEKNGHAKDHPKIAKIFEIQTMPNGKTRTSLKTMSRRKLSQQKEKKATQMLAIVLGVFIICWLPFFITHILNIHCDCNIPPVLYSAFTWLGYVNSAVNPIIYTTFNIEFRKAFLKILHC
T2 sequence (P07550 whole entry): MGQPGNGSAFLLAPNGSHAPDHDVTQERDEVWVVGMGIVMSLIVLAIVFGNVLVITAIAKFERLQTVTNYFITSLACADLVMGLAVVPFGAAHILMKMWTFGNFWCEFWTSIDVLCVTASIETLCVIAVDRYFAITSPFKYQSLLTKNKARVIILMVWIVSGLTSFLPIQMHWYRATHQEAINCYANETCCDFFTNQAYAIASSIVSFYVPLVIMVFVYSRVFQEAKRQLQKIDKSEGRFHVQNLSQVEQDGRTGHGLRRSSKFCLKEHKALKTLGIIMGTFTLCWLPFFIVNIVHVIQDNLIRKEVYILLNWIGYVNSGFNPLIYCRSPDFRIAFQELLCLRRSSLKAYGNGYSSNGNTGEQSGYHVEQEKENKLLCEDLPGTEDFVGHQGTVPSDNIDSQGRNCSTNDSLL
T4 sequence (P08588 whole entry): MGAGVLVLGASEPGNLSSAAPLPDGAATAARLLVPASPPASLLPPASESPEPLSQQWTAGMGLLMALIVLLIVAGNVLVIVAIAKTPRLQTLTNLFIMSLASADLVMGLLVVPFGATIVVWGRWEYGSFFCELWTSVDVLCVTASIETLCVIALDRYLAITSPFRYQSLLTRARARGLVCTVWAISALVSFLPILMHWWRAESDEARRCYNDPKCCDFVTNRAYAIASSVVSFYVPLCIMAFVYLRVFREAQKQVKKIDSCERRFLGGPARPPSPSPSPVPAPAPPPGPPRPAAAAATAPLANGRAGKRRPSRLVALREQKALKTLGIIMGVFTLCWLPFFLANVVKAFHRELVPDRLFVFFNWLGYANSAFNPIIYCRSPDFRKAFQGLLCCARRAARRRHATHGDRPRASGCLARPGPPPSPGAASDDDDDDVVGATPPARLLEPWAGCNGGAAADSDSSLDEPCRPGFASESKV

As for `CC(C)(CO)CN(CCNCCc1ccc(O)c2[nH]c(=O)sc12)C(=O)CCNCCc1ccc(Cl)cc1` [Example 40, N^3-[2-(4-Chlorophenyl)ethyl]-N-(3-hydroxy-2,2-dimethylpropyl)-N-(2-{[2-(4-hydroxy-2-oxo-2,3-dihydro-1,3-benzothiazol-7-yl)ethyl]amino}ethyl)-β-alaninamide diacetic acid salt], the IC50 in assay [1] is 794 nM. On Adrenergic β2, the EC50 is 63.1 nM and the “β2 Int Act” value was found to be 0.64. For the same molecule, the IC50 in assay [2] was 794 nM.
For `O=C(CCNCCc1ccc(Cl)c(Cl)c1)N(CCNCCc1ccc(O)c2[nH]c(=O)sc12)C1CCC(F)(F)CC1` [Example 49, N^3-[2-(3,4-Dichlorophenyl)ethyl]-N^1-(4,4-difluorocyclohexyl)-N^1-(2-{[2-(4-hydroxy-2-oxo-2,3-dihydro-1,3-benzothiazol-7-yl)ethyl]amino}ethyl)-β-alaninamide bis-trifluoroacetic acid salt], the IC50 in assay [1] is 631 nM. For the same molecule, on Adrenergic β2, the EC50 is 7.94 nM and the “β2 Int Act” value was 0.59. Besides, in assay [3], the IC50 was 1580 nM.
For the molecule `COc1cccc(CCNCCC(=O)N(CCNCCc2ccc(O)c3[nH]c(=O)sc23)C2CCCCC2)c1` [Example 70, N^1-Cyclohexyl-N^1-(2-{[2-(4-hydroxy-2-oxo-2,3-dihydro-1,3-benzothiazol-7-yl)ethyl]amino}ethyl)-N^3-[2-(3-methoxyphenyl)ethyl]-β-alaninamide bis-trifluoroacetic acid salt], in assay [1], the IC50 was 126 nM. Further, on Adrenergic β2, the EC50 was 5.01 nM and the “β2 Int Act” value is reported as 0.84. Besides, the IC50 in assay [2] was 200 nM.
On the same counts, the results for `O=C(CCNCCC(F)(F)F)N(CCNCCc1ccc(O)c2[nH]c(=O)sc12)C1CCCCC1` [Example 80, N^1-Cyclohexyl-N^1-(2-{[2-(4-hydroxy-2-oxo-2,3-dihydro-1,3-benzothiazol-7-yl)ethyl]amino}ethyl)-N^3-(3,3,3-trifluoropropyl)-β-alaninamide bis-trifluoroacetic acid salt] are 1260 nM, 126 nM, 0.86 and 398 nM.
